Counter-ions that a name gives are not always drawn.

For experiment [1], the target named is T1, PIM1 serine/threonine kinase (Homo sapiens, UniProt P11309).
T1 construct: purchased Carna Bioscience, Inc
The experiment in a line: PIM1 serine/threonine kinase inhibitory effect. Format: biochemical. The settings on record: PIM1 serine/threonine kinase activity; ATP 40 μM; 30° C., 30 minutes. The procedure, abridged: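 Recombinant PIM1 (0.15 μg/ml final) with 0.5 μM biotinylated substrate and 40 μM ATP in pH 7.0 HEPES/MgCl2 buffer, 30 min at 30° C. Compound range was 0.01–10000 nM final, n=2. HTRF detection with streptavidin-XL665 and anti-phospho antibody-cryptate, 1 h; IC50 from non-linear regression of the 665/620 ratio.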

The target of experiment [2] is PIM1 transgenic cells (Ba/F3) (Homo sapiens, UniProt P11309). Nature of the experiment: Proliferation inhibitory effect on PIM1 transgenic cells. It counts as cell-based, mouse. Particulars: proliferation inhibition, 72 hours, Cell Counting Kit-8, read-out: PIM1 IC50. From the text:
Human PIM1, 2, and 3 genes were inserted into the multi-cloning sites of retrovirus expression vectors pMYs-IRES-GFP, respectively, to prepare gene transfer vectors. Then, each gene transfer vector was introduced into packaging cells PLAT-E derived from a human fetal kidney cell line in the logarithmic growth phase, using a transfection reagent (FuGENE6, Promega Corporation). Since the culture supernatant of PLAT-E after gene transfer contained virus particles for gene transfer, the culture supernatant was collected and used as a medium for gene transfer. The medium for gene transfer was added to a plate coated with RetroNectin, and the plate was incubated to attach the virus particles to the plate. Then, a mouse pro-B cell line Ba/F3 in the logarithmic growth phase was seeded on the plate and infected with the virus to prepare PIM1, 2, or 3 transgenic cells that proliferate in a PIM 1, 2, or 3-dependent manner. The expression of PIM1, 2, or 3 protein in each cell was confirmed by Western blotting.
Each test substance was prepared to 10 mM with dimethylsulfoxide (DMSO), and diluted with DMSO so as to have concentrations of 3000, 1000, 300, 100, 30, 10, 3, and 1 μM. Moreover, each dilution was further diluted 10-fold with distilled water to prepare a test substance solution.
PIM1, 2, 3-expressing cells were seeded on a 96-well plate, and each test substance solution prepared the next day was added such that final concentrations were 10000, 3000, 1000, 300, 100, 30, 10, 3, and 1 nM. 72 hours after the addition, 10 μL of Cell Counting Kit-8 (DOJINDO LABORATORIES) was added to each well. After incubation for 1 to 4 hours, absorbance OD450 at 450 nm was measured. In addition, absorption OD650 at 650 nm as a reference wavelength was measured.
OD450-OD650 for each condition was calculated, and then the inhibition rates when OD450-OD650 of negative control (DMSO only) and OD450-OD650 of Blank (without cells) were set to 0% and 100%, respectively, were calculated. Then, non-linear regression analysis was performed for logarithmic dose and inhibition rate using a two-parameter logistic model to estimate IC50 values.
In general terms: Tetrazolium assays rely on reduction of a dye to a coloured formazan, in cell work by metabolically active cells.

PIM1 transgenic cells (Ba/F3), sequence (P11309 whole entry, stated change not applied): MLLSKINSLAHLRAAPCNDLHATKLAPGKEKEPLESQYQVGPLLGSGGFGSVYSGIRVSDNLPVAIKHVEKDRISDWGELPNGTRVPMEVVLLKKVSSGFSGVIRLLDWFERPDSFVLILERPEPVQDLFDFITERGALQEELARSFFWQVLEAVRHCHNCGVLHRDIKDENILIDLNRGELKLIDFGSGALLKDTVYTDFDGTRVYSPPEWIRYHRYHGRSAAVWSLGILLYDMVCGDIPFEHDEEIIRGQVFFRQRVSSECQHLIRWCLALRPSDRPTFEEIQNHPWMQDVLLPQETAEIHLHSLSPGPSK
T1 sequence (P11309 whole entry): as the sequence (P11309 whole entry, stated change not applied) above

In experiment [1], `O=c1[nH]nc(-c2ccc(C(F)(F)F)c(NCCC3CCCNC3)c2)o1` (stereo not drawn) [Example 60, 5-[3-{[2-(piperidin-3-yl)ethyl]amino}-4-(trifluoromethyl)phenyl]-1,3,4-oxadiazol-2(3H)-one hydrochloride] displayed a 50% inhibitory concentration (IC50) of 13 nM. The GI50 in experiment [2] was 3100 nM.
The corresponding values for `O=c1[nH]nc(-c2ccc(C(F)(F)F)c(NCCC3CCNCC3)c2)o1` [Example 64, 5-[3-{[2-(piperidin-4-yl)ethyl]amino}-4-(trifluoromethyl)phenyl]-1,3,4-oxadiazol-2(3H)-one hydrochloride] are 9 nM and 1300 nM.
In experiment [1], `O=c1[nH]nc(-c2ccc(C(F)(F)F)c(NCCN3CCNCC3)c2)o1` [Example 65, 5-[3-{[2-(piperazin-1-yl)ethyl]amino}-4-(trifluoromethyl)phenyl]-1,3,4-oxadiazol-2(3H)-one dihydrochloride] registered an IC50 of 14 nM. In addition, the GI50 in experiment [2] came to 1000 nM.
The corresponding values for `Cc1ccc(-c2n[nH]c(=O)o2)cc1NC[C@H]1CC[C@H](N)CC1` [Example 67, 5-[3-({[(1r,4r)-4-aminocyclohexyl]methyl}amino)-4-methylphenyl]-1,3,4-oxadiazol-2(3H)-one hydrochloride] are 26 nM and 610 nM.
The corresponding values for `CC1(CCNc2cc(-c3n[nH]c(=O)o3)ccc2C(F)(F)F)CCNCC1` [Example 70, 5-[3-{[2-(4-methylpiperidin-4-yl)ethyl]amino}-4-(trifluoromethyl)phenyl]-1,3,4-oxadiazol-2(3H)-one hydrochloride] are 4.2 nM and 1700 nM.
For `N[C@H]1CC[C@H](CNc2cc(-c3n[nH]c(=O)o3)ccc2-c2ccccc2)CC1` [Example 71, 5-[2-({[(1r,4r)-4-aminocyclohexyl]methyl}amino)[1,1′-biphenyl]-4-yl]-1,3,4-oxadiazol-2(3H)-one hydrochloride] the same measures were 140 nM and 4200 nM.
Consider `N[C@@H]1CCCN(CCNc2cc(-c3n[nH]c(=O)o3)ccc2C(F)(F)F)C1` [Example 72, 5-[3-({2-[(3R)-3-aminopiperidin-1-yl]ethyl}amino)-4-(trifluoromethyl)phenyl]-1,3,4-oxadiazol-2(3H)-one dihydrochloride], for which half-maximal inhibition in experiment [1] (IC50) required 8.4 nM. The GI50 in experiment [2] was 920 nM.
The corresponding values for `N[C@H]1CCCN(CCNc2cc(-c3n[nH]c(=O)o3)ccc2C(F)(F)F)C1` [Example 73, 5-[3-({2-[(3S)-3-aminopiperidin-1-yl]ethyl}amino)-4-(trifluoromethyl)phenyl]-1,3,4-oxadiazol-2(3H)-one dihydrochloride] are 21 nM and 570 nM.
In experiment [1], `N[C@H]1CC[C@@H](CNc2cc(-c3n[nH]c(=O)o3)ccc2C(F)(F)F)CC1` [Example 74, 5-[3-({[(1s,4s)-4-aminocyclohexyl]methyl}amino)-4-(trifluoromethyl)phenyl]-1,3,4-oxadiazol-2(3H)-one hydrochloride] yielded a half-inhibitory concentration (IC50) of 2.2 nM. Further, the GI50 in experiment [2] worked out at 150 nM.
Take `C[C@H](Nc1cc(-c2n[nH]c(=O)o2)cc(F)c1Cl)C1CCNCC1` [Example 76, 5-(4-chloro-3-fluoro-5-{[(1S)-1-(piperidin-4-yl)ethyl]amino}phenyl)-1,3,4-oxadiazol-2(3H)-one hydrochloride]: the IC50 in experiment [1] is 1.9 nM. In addition, the GI50 in experiment [2] came to 31 nM.
The corresponding values for `C[C@H](Nc1cc(-c2n[nH]c(=O)o2)ccc1Cl)C1CCNCC1` [Example 77, 5-(4-chloro-3-{[(1S)-1-(piperidin-4-yl)ethyl]amino}phenyl)-1,3,4-oxadiazol-2(3H)-one dihydrochloride] are 5.8 nM and 180 nM.
Consider `C[C@H](Nc1cc(-c2n[nH]c(=O)o2)ccc1Br)C1CCNCC1` [Example 78, 5-(4-bromo-3-{[(1S)-1-(piperidin-4-yl)ethyl]amino}phenyl)-1,3,4-oxadiazol-2(3H)-one dihydrochloride], for which the half-maximal inhibitory concentration (IC50) in experiment [1] worked out at 3.3 nM. In addition, the GI50 in experiment [2] came out at 170 nM.

Broadly, the IC50 is the concentration that gives 50% inhibition. Higher therefore signals a need for much substance.

The values above are taken from patent US20220024921A1, “1,3,4-OXADIAZOLONE COMPOUND AND PHARMACEUTICAL” (NIPPON SHINYAKU CO., LTD., priority 2018, published 2022).
